# Reference: publication PMC5396026 (Chemical Research in Toxicology, 2016)
# How the values were obtained:
# AR pathway = conditions: for AR pathway model call: maximum of agonist or antagonist AUC
# AR [1] = target: T1, AR (Rattus norvegicus, UniProt P15207); test: Literature review: AR transactivation assays, agonist mode; conditions: reference classification from curated literature TA data (mean AC50)
# T1 sequence (P15207 1-902): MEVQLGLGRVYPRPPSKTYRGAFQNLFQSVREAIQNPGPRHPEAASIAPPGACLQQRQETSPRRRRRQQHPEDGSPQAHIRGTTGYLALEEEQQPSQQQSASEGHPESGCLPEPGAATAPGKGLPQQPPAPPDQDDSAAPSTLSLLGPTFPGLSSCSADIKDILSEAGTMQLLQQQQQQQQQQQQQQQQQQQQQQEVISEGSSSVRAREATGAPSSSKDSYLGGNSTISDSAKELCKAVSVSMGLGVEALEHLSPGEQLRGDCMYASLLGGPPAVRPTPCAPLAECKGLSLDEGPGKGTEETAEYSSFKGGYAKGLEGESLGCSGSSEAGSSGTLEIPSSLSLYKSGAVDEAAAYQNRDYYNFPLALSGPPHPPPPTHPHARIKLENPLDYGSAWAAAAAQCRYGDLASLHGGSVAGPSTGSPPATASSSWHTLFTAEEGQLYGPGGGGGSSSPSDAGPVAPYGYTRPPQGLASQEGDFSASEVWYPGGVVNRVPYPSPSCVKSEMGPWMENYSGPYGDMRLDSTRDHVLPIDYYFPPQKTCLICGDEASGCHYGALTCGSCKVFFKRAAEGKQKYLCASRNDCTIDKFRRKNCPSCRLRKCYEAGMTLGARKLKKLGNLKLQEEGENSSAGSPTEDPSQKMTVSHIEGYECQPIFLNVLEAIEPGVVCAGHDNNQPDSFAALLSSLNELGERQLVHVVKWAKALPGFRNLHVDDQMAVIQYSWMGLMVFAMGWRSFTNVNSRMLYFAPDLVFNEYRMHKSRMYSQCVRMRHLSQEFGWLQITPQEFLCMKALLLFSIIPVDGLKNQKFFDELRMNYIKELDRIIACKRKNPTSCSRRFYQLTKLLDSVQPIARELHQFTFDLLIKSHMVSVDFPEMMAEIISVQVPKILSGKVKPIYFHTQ
# cytotoxicity = type: cell-based; conditions: distance of AR assay logAC50 from median cytotoxicity logAC50; high = >3
# AR [2] = target: T2, AR (Homo sapiens, UniProt P10275); type: cell-based; conditions: AC50 at 10 nM vs 0.5 nM R1881, 95% confidence intervals
# T2 sequence (P10275 1-920): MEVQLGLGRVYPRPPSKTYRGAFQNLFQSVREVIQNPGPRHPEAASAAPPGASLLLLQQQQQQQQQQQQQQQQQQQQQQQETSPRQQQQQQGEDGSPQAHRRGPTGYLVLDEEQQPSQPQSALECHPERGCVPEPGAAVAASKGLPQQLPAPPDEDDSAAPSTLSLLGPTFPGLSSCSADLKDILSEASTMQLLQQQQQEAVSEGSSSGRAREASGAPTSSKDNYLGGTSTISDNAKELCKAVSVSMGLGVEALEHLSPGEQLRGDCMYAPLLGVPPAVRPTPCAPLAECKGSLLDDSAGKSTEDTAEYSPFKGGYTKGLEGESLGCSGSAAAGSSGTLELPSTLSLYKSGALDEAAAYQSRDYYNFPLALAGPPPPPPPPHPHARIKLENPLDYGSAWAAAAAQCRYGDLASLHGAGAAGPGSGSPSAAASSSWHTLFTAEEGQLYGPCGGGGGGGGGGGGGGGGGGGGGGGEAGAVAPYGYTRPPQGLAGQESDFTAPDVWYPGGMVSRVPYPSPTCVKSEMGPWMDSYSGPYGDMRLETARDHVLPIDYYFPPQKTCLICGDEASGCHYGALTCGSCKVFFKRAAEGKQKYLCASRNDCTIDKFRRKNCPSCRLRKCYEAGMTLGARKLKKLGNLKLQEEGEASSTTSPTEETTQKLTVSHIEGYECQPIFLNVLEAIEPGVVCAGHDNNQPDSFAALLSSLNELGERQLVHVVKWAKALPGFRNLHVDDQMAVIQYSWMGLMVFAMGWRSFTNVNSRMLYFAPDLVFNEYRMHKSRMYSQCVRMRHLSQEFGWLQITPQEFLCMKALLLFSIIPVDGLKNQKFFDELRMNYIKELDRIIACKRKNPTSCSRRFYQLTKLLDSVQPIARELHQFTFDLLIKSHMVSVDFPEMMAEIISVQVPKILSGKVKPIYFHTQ
smiles,measurement,setting,value
Oc1ccccc1-c1ccccc1 [2-phenylphenol],AR pathway model call,AR pathway,negative (negative if the maximum was <0.001)
C[C@]12CC[C@@H]3c4ccc(O)cc4CC[C@H]3[C@@H]1CC[C@H]2O [17a-estradiol],"AR pathway model AUC, Agonist (R1)",AR pathway,0.67
same,AR pathway model agonist prediction against reference classification,AR pathway; agonist reference chemicals,false positive
C[C@]12C=CC3=C4CCC(=O)C=C4CC[C@H]3[C@@H]1CC[C@@H]2O [17b-trenbolone],agonist potency category,AR [1],strong (Strong: mean AC50 ≤ 0.1 μM)
"C[C@]12CC[C@@H]3c4ccc(O)cc4C[C@@H](CCCCCCCCC[S+]([O-])CCCC(F)(F)C(F)(F)F)[C@H]3[C@@H]1CC[C@@H]2O (stereo partly drawn) [ICI 182,780]",agonist potency category,AR [1],negative
O=c1cc(-c2ccc(O)cc2)oc2cc(O)cc(O)c12 [apigenin],average Z-score,cytotoxicity,high
CCN=C1C=CC(=C(c2ccc(N(CC)CC)cc2)c2ccc(N(CC)CC)cc2)c2ccccc21.Cl [basic blue 7],potency shift in antagonist confirmation assay,AR [2],flagged for a lack of a potency shift
CCCCNC(=O)n1c(NC(=O)OC)nc2ccccc21 [benomyl],agonist potency category,AR [1],negative
CNC(=O)Oc1cccc2ccccc12 [carbaryl],AR pathway model call,AR pathway,negative (negative if the maximum was <0.001)
COC(=O)Nc1nc2ccccc2[nH]1 [carbendazim],agonist potency category,AR [1],negative
CC1(C)[C@H](C(=O)O[C@H](C#N)c2cccc(Oc3ccccc3)c2)[C@@H]1C=C(Br)Br [deltamethrin],agonist potency category,AR [1],negative
CCOP(=S)(OCC)Oc1cc(C)nc(C(C)C)n1 [diazinon],AR pathway model call,AR pathway,negative (negative if the maximum was <0.001)
N#Cc1c(Cl)cccc1Cl [dichlobenil],AR pathway model call,AR pathway,negative (negative if the maximum was <0.001)
CC(C)(O)C(=O)Nc1ccc([N+](=O)[O-])c(C(F)(F)F)c1 [hydroxyflutamide],average Z-score,cytotoxicity,high
CON(C)C(=O)Nc1ccc(Cl)c(Cl)c1 [linuron],average Z-score,cytotoxicity,high
CC[C@H](c1ccc(O)cc1)[C@@H](CC)c1ccc(O)cc1 [meso-hexestrol],potency shift in antagonist confirmation assay,AR [2],shift in the correct direction but with overlapping confidence intervals
"C[C@]1(O)CC[C@H]2[C@@H]3CCC4=CC(=O)CCC4=C3C=C[C@@]21C [methyltrienolone (R1881), methyltrienolone]",agonist potency category,AR [1],strong (Strong: mean AC50 ≤ 0.1 μM)
CCc1cccc(C)c1N(C(=O)CCl)C(C)COC (stereo not drawn) [metolachlor],AR pathway model call,AR pathway,negative (negative if the maximum was <0.001)
CCCCC(C#N)(Cn1cncn1)c1ccc(Cl)cc1 (stereo not drawn) [myclobutanil],AR pathway model call,AR pathway,negative (negative if the maximum was <0.001)
CC1(C)NC(=O)N(c2ccc([N+](=O)[O-])c(C(F)(F)F)c2)C1=O [nilutamide],average Z-score,cytotoxicity,high
CC1(C)C(C=C(Cl)Cl)C1C(=O)OCc1cccc(Oc2ccccc2)c1 (stereo not drawn) [permethrin],agonist potency category,AR [1],negative
COP(=S)(OC)SCN1C(=O)c2ccccc2C1=O [phosmet],AR pathway model call,AR pathway,negative (negative if the maximum was <0.001)
Oc1ccc(/C=C/c2cc(O)cc(O)c2)cc1 [resveratrol],agonist potency category,AR [1],negative
CC/N=c1\cc2oc3cc(NCC)c(C)cc3c(-c3ccccc3C(=O)OCC)c-2cc1C [rhodamine 6G],potency shift in antagonist confirmation assay,AR [2],flagged for a lack of a potency shift
CC(=O)S[C@@H]1CC2=CC(=O)CC[C@]2(C)[C@H]2CC[C@@]3(C)[C@@H](CC[C@@]34CCC(=O)O4)[C@H]12 [spironolactone],average Z-score,cytotoxicity,high
CC/C(=C(\c1ccccc1)c1ccc(OCCN(C)C)cc1)c1ccccc1 [tamoxifen],"AR pathway model AUC, Agonist (R1)",AR pathway,0.0335
CC(C)=CC1C(C(=O)OCN2C(=O)C3=C(CCCC3)C2=O)C1(C)C (stereo not drawn) [tetramethrin],agonist potency category,AR [1],negative
C=CC1(C)OC(=O)N(c2cc(Cl)cc(Cl)c2)C1=O (stereo not drawn) [vinclozolin],average Z-score,cytotoxicity,high
C[C@H]1CCCC(=O)CCC/C=C/c2cc(O)cc(O)c2C(=O)O1 [zearalenone],potency shift in antagonist confirmation assay,AR [2],active in both screens and exhibited a potency shift in the expected direction
same,AR pathway model antagonist prediction against reference classification,AR pathway; antagonist reference chemicals,false negative
